Literature values as cited in paper PMC4959786 (Clinical immunology (Orlando, Fla.), 2015).

Target: I-A^q (Mus musculus, UniProt P04227+P06342)
Settings: result in words, earlier work

Sequence of I-A^q (P04227 whole entry, looked up): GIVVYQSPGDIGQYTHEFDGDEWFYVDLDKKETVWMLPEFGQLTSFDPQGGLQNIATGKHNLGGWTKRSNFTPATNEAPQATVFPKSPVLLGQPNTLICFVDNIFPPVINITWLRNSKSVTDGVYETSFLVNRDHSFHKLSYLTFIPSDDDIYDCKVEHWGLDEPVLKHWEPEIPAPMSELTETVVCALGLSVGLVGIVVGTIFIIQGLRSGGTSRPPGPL
Sequence of I-A^q (P06342 whole entry, looked up): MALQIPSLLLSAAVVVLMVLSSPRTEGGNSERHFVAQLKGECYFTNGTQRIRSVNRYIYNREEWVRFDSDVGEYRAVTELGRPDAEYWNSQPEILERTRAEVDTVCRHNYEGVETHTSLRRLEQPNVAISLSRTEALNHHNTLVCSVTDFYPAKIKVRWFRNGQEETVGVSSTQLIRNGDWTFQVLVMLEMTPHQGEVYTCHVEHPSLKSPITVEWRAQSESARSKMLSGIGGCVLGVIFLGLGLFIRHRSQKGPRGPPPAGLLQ

For GEBGABGNKGEQGPKGEBGP [A9], the “binding to I-A^q” value (ref [5], [6]) is listed as “binds very weakly” and the “binding affinity for I-A^q” value (ref [6]) is listed as “very weak binding affinity”.
